Reference: US20130150430A1, “Methods for Impairing the P53/HDM2 Auto-Regulatory Loop in Multiple Myeloma Development Using mIR-192, mIR-194 and mIR-215” (THE OHIO STATE UNIVERSITY, priority 2011, published 2013)

How the values were obtained:
Assay type in all cases: cell-based, human
WT p53 MM cells = assay: Colony suppression assay after lentiviral miRNA transduction; settings: lentivirus-transduced WT p53 cells; miR-34a internal control; scored at 14 days
Protocol: FIG. 3E, FIG. 3F: Soft agar colony suppression assay in WT TP53 and mutant TP53 MM cell lines after miRNAs transduction by lentivectors.
A total of 30×10^3 cells were infected with Lenti-mir-192: PMIRH 192-PA-1 Lenti-mir-194-1:PMIRH 1941PA-1; Lenti-mir-215:PMIRH 215 PA-1; Control Lentivector(pCDH-CMV-EFI-copGFP cDNA cloning and Expression vector): CD511 B-1 (System Biosciences) as per the manufacturer's protocol. MM cells were plated in quadruplicate in 1 mL of methylcellulose medium for Mouse cells (Cat#03234, Stem cell Technologies) in 6-well culture plates. Colonies consisting of more than 40 (125μ) cells were scored at 14 days.

[1] = system: p53, MDM2 and p21 in MM1s and NCI-H929 cells; assay: Western blot of p53, MDM2, p21 after miRNA or ASO transfection and Nutlin-3a; settings: 72 hr after transfection, 12 hr Nutlin-3a (10 μM); for expression of MDM2 protein: both cell lines; for level of p53 and p21: vs Scr-transfected cells, p<0.001
Protocol: FIG. 4A: MM1s and NCIH929 cells (pre-miRNA-192, pre-miRNA-194, pre-miRNA-215, Scr sequence-transfected) were harvested at 72 hr after transfection and 12 hr Nutlin-3a treatment (10 μM). Whole cell lysates were subjected to Western blotting using p53, MDM2, p21, and Gapdh antibodies. Densitometric analysis showing the effect of miR-194 (white bars), miR-192 (grey bars), miR-215 (black bars) compared to Scr sequence (green bars) transfected cells of endogenous p53, MDM2 and p21 in MM1s (FIG. 4B) and NCI-H929 (FIG. 4C) Nutlin-3a treated.
FIG. 4D: Immununoblot analysis showing p53, MDM2 and p21 protein expression after 48 hr of miR192, miR-194, miR-215 (pool) and Scr ASOs transfection in MM1s and NCI-H929 cells after 12 hr of treatment with 10 μM Nutlin-3a.
Samples were extracted in 15 mM Tris.Cl, pH 7.5/120 mM NaCl/25 mM KCl/2 mM EGTA/0.1 mM DTT/0.5% Triton X-100/[…] leupeptin/0.5 mM PMSF. Total protein (35 μg) from each sample was separated on a 4-20% Tris-HCl-Criterion precast gel Bio-Rad (cat#345-0032, Hercules, Calif.) and transferred to a poly(vinylidene difluoride) filter (Millipore). The filter was blocked in 5% nonfat dry milk, incubated with the specific antibody, washed, and probed with secondary antibody IgG conjugated to horseradish peroxidase (Santa Cruz Biotechnology), and developed with enhanced chemiluminescence (Amersham Pharmacia). Immunoblot analyses were performed using the following antibodies: p53 (sc-53394, Santa Cruz Biotechnology), MDM2 (sc-965, Santa Cruz Biotechnology), phospho-MDM2 (Cat#3521, Cell Signaling), c-MYC (cs-40, Santa Cruz Biotechnology), IGF-1 (sc-9013, Santa Cruz Biotechnology), IGF-1R (Cat#3027, Cell Signaling), total-Akt (Cat#9272, Cell signaling), phospho-Akt (Cat#4060, Cell Signaling), total-S6 (Cat#2217, Cell Signaling), phospho-S6 (Cat#2211, Cell Signaling), p21 (sc-817, Santa Cruz Biotechnology), α-PUMA (Cat#4976, Cell Signaling), GAPDH (Cat#2118, Cell Signaling). Filters were reprobed with enzyme-conjugated antibodies to GFP and β-actin (Santa Cruz Biotechnology).
MM cells (from MM subjects or from cell lines) non-transfected or transfected with pre- or ASOs miR-192, miR-215, miR-194 and Scr sequence as described above, were treated with MDM2 inhibitor (Nutlin3a and MI-219). Fresh CD138+ primary PCs isolated from new diagnosed MM subjects as previously described were maintained in culture for 24 hr and then treated for 24 hr with 10 μM Nutlin-3a (Cayman Chemical Company) or vehicle (DMSO). For transfected cells at 24 hrs after transfection MM cells were treated with 10 μM Nutlin-3a (Cayman Chemical Company) or DMSO vehicle only at different time points. […]

[2] = system: IGF-1R and IGF-1 in MM1s cells; assay: Western blot of IGF-1R and IGF-1 after miRNA transfection; settings: pre-miRNA transfected
Protocol: FIG. 6A, FIG. 6B: Western blot showing IGF-1R and IGF-1 expression after miR-192 and miR-215 transfection using pre (FIG. 6A) and ASOs (FIG. 6B) for miR-192, miR-215, miR-194 and Scr in MM1s cells treated for 12 hr with Nutlin-3a.
Samples were extracted in 15 mM Tris.Cl, pH 7.5/120 mM NaCl/25 mM KCl/2 mM EGTA/0.1 mM DTT/0.5% Triton X-100/[…] leupeptin/0.5 mM PMSF. Total protein (35 μg) from each sample was separated on a 4-20% Tris-HCl-Criterion precast gel Bio-Rad (cat#345-0032, Hercules, Calif.) and transferred to a poly(vinylidene difluoride) filter (Millipore). The filter was blocked in 5% nonfat dry milk, incubated with the specific antibody, washed, and probed with secondary antibody IgG conjugated to horseradish peroxidase (Santa Cruz Biotechnology), and developed with enhanced chemiluminescence (Amersham Pharmacia). […]

Substance | colony formation (WT p53 MM cells) | expression of MDM2 protein [1] | level of p53 and p21 [1] | IGF-1R and IGF-1 protein levels [2]
miR-215: microRNA, p53-activated, down-regulated in MM; transfected as miRNA precursor (Ambion) or lentivector; SEQ ID NO:58 (AUGACCUAUGAAUUGACAGAC; listed as RNA, chemistry not given here; listed as Homo sapiens) | suppressed colony formation to an extent comparable to miR-34a | dramatically decreased | significantly increased | decreased
miR-192: microRNA, p53-activated, down-regulated in MM; transfected as miRNA precursor (Ambion) or lentivector; SEQ ID NO:56 (CUGACCUAUGAAUUGACAGCC; listed as RNA, chemistry not given here; listed as Homo sapiens) | suppressed colony formation to an extent comparable to miR-34a | dramatically decreased | significantly increased | decreased
